Measurements published in the NIST ThermoML archive (doi:10.1016/j.jct.2014.07.006).
Where “and” joins values, the source holds several entries; their conditions need not be identical. Equal values may be shown once.

Experiments:
[1] = for vapor or sublimation pressure: Liquid, Rate of evaporation; for Normal melting temperature: Crystal, DTA
[2] = Molar enthalpy of transition or fusion; details: Crystal; DSC
[3] = molar heat capacity at constant pressure; details: 298.15 K; 101.33 kPa; Crystal; Small sample (50 mg) DSC

NC(=O)c1cccc([N+](=O)[O-])c1 [3-nitrobenzamide]
[1]
Details	vapor or sublimation pressure [kPa]
485 K	0.7222
485.02 K	0.7094
485.06 K	0.6868
490.01 K	0.8798
490.02 K	0.868
490.06 K	0.84
495.01 K	1.068
495.02 K	1.057
495.05 K	1.021
500 K	1.286
500.01 K	1.284
500.04 K	1.246
505.03 K	1.495
505.07 K	1.556
505.08 K	1.557
510 K	1.794
510.04 K	1.867
510.06 K	1.872
515.02 K	2.228
515.03 K	2.226
515.06 K	2.146
520.02 K	2.545
520.06 K	2.654
520.07 K	2.633
525.02 K	3.119
525.03 K	3.091
525.06 K	3.009
530 K	3.525
530.04 K	3.638
530.06 K	3.596
535.01 K	4.145
535.03 K	4.119
535.06 K	4.215

Details	Molar enthalpy of transition or fusion [kcal/mol]	Normal melting temperature [°C]	molar heat capacity at constant pressure [J/K/mol]
[1]	–	141.51	–
[2]	5.87	–	–
[3]	–	–	237.57

NC(=O)c1ccccc1[N+](=O)[O-] [2-nitrobenzamide]
[1]
Details	vapor or sublimation pressure
485.02 K	0.5592 kPa
485.04 K	0.5538 kPa
485.08 K	0.5802 kPa
490.02 K	0.6682 kPa
490.06 K	0.6975 kPa
490.07 K	0.6914 kPa
495 K	0.8483 kPa
495.01 K	0.8342 kPa
495.05 K	0.8126 kPa
500.01 K	1.016 kPa
500.05 K	0.9934 kPa
500.08 K	1.036 kPa
505 K	1.234 kPa
505.03 K	1.212 kPa
505.05 K	1.264 kPa
510.02 K	1.487 kPa
510.04 K	1.531 kPa
510.07 K	1.503 kPa
515.02 K	1.877 kPa
515.05 K	1.829 kPa
515.08 K	1.822 kPa
520.02 K	2.233 kPa
520.05 K	2.227 kPa
520.07 K	2.203 kPa
525.01 K	2.884 kPa and 2.697 kPa
525.06 K	2.718 kPa
530.02 K	3.274 kPa
530.03 K	3.315 kPa
530.07 K	3.29 kPa
535.02 K	3.942 kPa
535.03 K	3.951 kPa
535.06 K	3.957 kPa

Details	Molar enthalpy of transition or fusion [kcal/mol]	Normal melting temperature [°C]	molar heat capacity at constant pressure [J/K/mol]
[1]	–	173.80	–
[2]	6.63	–	–
[3]	–	–	220.96

c1ccc2c(c1)ccc1ccccc12 [phenanthrene]
[1]
Details	vapor or sublimation pressure
400 K	0.1505 kPa [middle of 4 runs]
405 K	0.18 kPa [middle of 4 runs]
410 K	0.2218 kPa [middle of 4 runs]
415 K	0.2759 kPa [middle of 4 runs]
420 K	0.3417 kPa [middle of 4 runs]
425 K	0.427 kPa [middle of 4 runs]
430 K	0.5304 kPa [middle of 4 runs]
435 K	0.6576 kPa [middle of 4 runs]
440 K	0.8141 kPa [middle of 4 runs]
445 K	1.004 kPa [middle of 4 runs]
450 K	1.235 kPa [middle of 4 runs]
455 K	1.516 kPa [middle of 4 runs]
460 K	1.844 kPa [middle of 4 runs]
465 K	2.233 kPa [middle of 4 runs]
470 K	2.697 kPa [middle of 4 runs]
475 K	3.245 kPa [middle of 4 runs]
480 K	3.773 kPa and 3.874 kPa and 3.819 kPa

NC(=O)c1ccc([N+](=O)[O-])cc1 [p-nitrobenzamide]
[1]
Details	vapor or sublimation pressure
485.02 K	0.6396 kPa and 0.6809 kPa
485.04 K	0.5788 kPa
485.1 K	0.6701 kPa
490.01 K	0.8437 kPa
490.03 K	0.8038 kPa
490.07 K	0.7398 kPa
490.08 K	0.7145 kPa
495.01 K	1.021 kPa and 0.9548 kPa
495.05 K	0.9568 kPa
495.06 K	0.871 kPa
500.01 K	1.06 kPa
500.03 K	1.229 kPa
500.04 K	1.142 kPa
500.06 K	1.154 kPa
505 K	1.286 kPa
505.03 K	1.474 kPa
505.05 K	1.352 kPa
505.06 K	1.416 kPa
510 K	1.671 kPa
510.02 K	1.683 kPa
510.04 K	1.565 kPa
510.06 K	1.777 kPa
515.01 K	2.113 kPa and 2.01 kPa
515.04 K	2.03 kPa
515.06 K	1.895 kPa
520.02 K	2.452 kPa
520.04 K	2.289 kPa
520.06 K	2.527 kPa
520.08 K	2.386 kPa
525.02 K	3.001 kPa
525.03 K	2.837 kPa
525.05 K	2.926 kPa
525.08 K	2.758 kPa
530.01 K	3.298 kPa
530.03 K	3.568 kPa
530.05 K	3.382 kPa
530.06 K	3.455 kPa
535.02 K	3.943 kPa
535.04 K	4.206 kPa
535.06 K	4.019 kPa
535.07 K	4.152 kPa

Details	Molar enthalpy of transition or fusion [kcal/mol]	Normal melting temperature [°C]	molar heat capacity at constant pressure [J/K/mol]
[1]	–	200.33	–
[2]	7.19	–	–
[3]	–	–	212.65
